These results are taken from patent publication US9365613B2, “Acylated 4-amidino- and -4-guanidinobenzylamines for inhibition of plasma kallikrein” (The Medicines Company (Leipzig) GmbH, priority 2003, dated 2016).

Holding throughout (assay type): biochemical
The target in one assay is plasma kallikrein (PK) (Homo sapiens, UniProt P03952). As to the kind of experiment: Determining the inhibitory constants: inhibition of PK (substrate Bzl-Pro-Phe-Arg-pNA). Conditions: Tris buffer pH 8.0, 25° C.; mean of at least three determinations. How it is done:
(§1) The inhibitory effect for the individual enzymes was determined in analogy with a method which has already been described (Stürzebecher et al., J. Med. Chem. 40, 3091-3099, 1997).
(§2) After 3 min, the reaction was terminated by adding 25 μl of acetic acid (50%) and the absorption at […] was determined using a Microplate Reader (Labsystems iEMS Reader MF). The Ki values were determined, in accordance with Dixon (Biochem. J. 55, 170-171, 1953), by means of linear regression and using a computer program. The Ki values are the mean of at least three determinations.

For another assay, the target named is T1, human factor XIIa (Homo sapiens, UniProt P00748).
T1 construct: purchased Haemochrom Diagnostica GmbH, Essen, Germany
As to the kind of experiment: Inhibitory constants for factor XIIa (substrate H-D-HHT-Gly-Arg-pNA, Chromozym XII). Conditions: read-out: Ki F XIIa. How it is done:
as §1, §2
(§3) The inhibition of factor XIa and factor XIIa was determined in an analogous manner. When determining the inhibitory constants for human factor XIa (Haemochrom Diagnostica GmbH, Essen, Germany), H-D-Lys(Z)-Pro-Arg-pNA (Chromozym PCa, Roche Diagnostics GmbH, Mannheim, Germany) was used as the substrate.
H-D-HHT-Gly-Arg-pNA (Chromozym XII, Roche Diagnostics GmbH, Mannheim, Germany) was used as the substrate for measuring the inhibitory constants of human factor XIIa (Haemochrom Diagnostica GmbH, Essen, Germany).

The target of another assay is thrombin (UniProt P00735). The assay can be described thus: Inhibitory constants for thrombin. Conditions: read-out: Ki Thrombin.
A further assay addresses T2, human factor XIa (Homo sapiens, UniProt P03951).
T2 construct: purchased Haemochrom Diagnostica GmbH, Essen, Germany
The assay can be described thus: Inhibitory constants for factor XIa (substrate H-D-Lys(Z)-Pro-Arg-pNA, Chromozym PCa). Conditions: read-out: Ki F XIa. How it is done:
as §1, §2, §3

T1 sequence (P00748 373-615 limits assumed, other chains not shown): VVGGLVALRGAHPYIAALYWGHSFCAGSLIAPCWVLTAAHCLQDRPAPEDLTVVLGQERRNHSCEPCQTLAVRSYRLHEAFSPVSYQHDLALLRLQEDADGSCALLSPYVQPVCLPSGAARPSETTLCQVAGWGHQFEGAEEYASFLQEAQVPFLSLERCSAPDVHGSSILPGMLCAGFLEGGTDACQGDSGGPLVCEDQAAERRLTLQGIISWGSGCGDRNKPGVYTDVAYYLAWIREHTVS
T2 sequence (P03951 388-625 limits assumed): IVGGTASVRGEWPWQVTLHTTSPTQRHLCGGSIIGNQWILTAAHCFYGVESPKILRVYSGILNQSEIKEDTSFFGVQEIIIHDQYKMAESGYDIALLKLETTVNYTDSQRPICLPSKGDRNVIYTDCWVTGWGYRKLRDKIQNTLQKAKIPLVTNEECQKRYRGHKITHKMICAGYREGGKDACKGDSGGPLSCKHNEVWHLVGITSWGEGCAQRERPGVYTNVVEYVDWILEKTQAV
T2 sequence (P03951 19-387 partner limits assumed): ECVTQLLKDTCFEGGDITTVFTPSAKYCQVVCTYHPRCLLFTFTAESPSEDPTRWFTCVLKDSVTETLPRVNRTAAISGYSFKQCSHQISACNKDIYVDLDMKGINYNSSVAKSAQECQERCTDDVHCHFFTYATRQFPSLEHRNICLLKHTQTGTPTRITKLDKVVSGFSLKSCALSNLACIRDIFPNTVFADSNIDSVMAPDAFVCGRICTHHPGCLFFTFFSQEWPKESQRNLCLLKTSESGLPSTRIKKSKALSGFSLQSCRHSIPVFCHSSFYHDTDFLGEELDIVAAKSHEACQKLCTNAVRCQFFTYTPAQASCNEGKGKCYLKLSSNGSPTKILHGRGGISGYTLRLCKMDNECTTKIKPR
Sequence of plasma kallikrein (PK) (P03952 391-638 limits assumed, species assumed): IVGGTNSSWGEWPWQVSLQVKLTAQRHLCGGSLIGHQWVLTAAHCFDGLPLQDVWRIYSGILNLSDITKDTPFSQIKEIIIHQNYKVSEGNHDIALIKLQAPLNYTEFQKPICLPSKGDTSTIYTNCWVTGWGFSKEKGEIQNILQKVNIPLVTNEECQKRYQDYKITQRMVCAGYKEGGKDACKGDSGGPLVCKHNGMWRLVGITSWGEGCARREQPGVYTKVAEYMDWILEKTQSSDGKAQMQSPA
Sequence of plasma kallikrein (PK) (P03952 20-390 partner limits assumed, species assumed): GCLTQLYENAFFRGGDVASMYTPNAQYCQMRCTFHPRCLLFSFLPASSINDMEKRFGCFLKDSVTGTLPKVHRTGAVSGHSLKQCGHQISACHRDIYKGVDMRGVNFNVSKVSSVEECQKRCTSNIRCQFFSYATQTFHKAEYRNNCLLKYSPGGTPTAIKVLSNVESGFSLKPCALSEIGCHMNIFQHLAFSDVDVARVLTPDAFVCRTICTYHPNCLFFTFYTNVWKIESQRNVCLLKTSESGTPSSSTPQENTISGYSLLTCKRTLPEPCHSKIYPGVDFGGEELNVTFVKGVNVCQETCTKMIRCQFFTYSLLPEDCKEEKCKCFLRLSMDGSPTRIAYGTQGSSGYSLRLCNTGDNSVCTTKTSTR

Consider `CC(C)(C)OCC(NS(=O)(=O)Cc1ccccc1)C(=O)NC(CCOCc1ccccc1)C(=O)NCc1ccc(C(=N)N)cc1` (stereo not shown) [Inhibitor 43], for which the Ki amounted to 0.0082 µM on plasma kallikrein (PK), 80 µM at human factor XIIa, 0.5 µM on thrombin and 0.61 µM on human factor XIa.

Consider `C[C@H](NC(=O)[C@@H](COC(C)(C)C)NS(=O)(=O)Cc1ccc(C(=O)O)cc1)C(=O)NCc1ccc(C(=N)N)cc1` [Inhibitor 48], for which the Ki at plasma kallikrein (PK) was 0.0062 µM; on human factor XIIa, 9.5 µM; on thrombin, 0.044 µM; on human factor XIa, 0.0069 µM.

For `N=C(N)c1ccc(CNC(=O)[C@H](CO)NC(=O)[C@@H](CO)NS(=O)(=O)Cc2ccccc2)cc1` [Inhibitor 15], the Ki came to 0.16 µM at plasma kallikrein (PK), 80 µM at human factor XIIa, 14 µM on thrombin and 0.3 µM on human factor XIa.

Consider `N=C(N)c1ccc(CNC(=O)[C@H](CCCCNC(=O)OCc2ccccc2)NC(=O)[C@@H](CO)NS(=O)(=O)Cc2ccccc2)cc1` [Inhibitor 11], for which the Ki on plasma kallikrein (PK) is 0.0035 µM; at human factor XIIa, 15 µM; at thrombin it was 0.18 µM; at human factor XIa it was 0.3 µM.

Take `CC(C)(C)OC[C@@H](NS(=O)(=O)Cc1ccccc1)C(=O)N[C@@H](CO)C(=O)NCc1ccc(C(=N)N)cc1` [Inhibitor 40]: the Ki on plasma kallikrein (PK) is 0.052 µM; on human factor XIIa, 6 µM; on thrombin, 0.047 µM; on human factor XIa it was 0.2 µM.

Turning to `CC(C)(C)OC[C@@H](NS(=O)(=O)Cc1ccccc1)C(=O)N[C@@H](CCc1ccccc1)C(=O)NCc1ccc(C(=N)N)cc1` [Inhibitor 45], the Ki on plasma kallikrein (PK) was determined as 0.0045 µM; at human factor XIIa, 1.3 µM; at thrombin, 0.048 µM; on human factor XIa it was 0.083 µM.

`CC(C)(C)OC[C@@H](NS(=O)(=O)Cc1ccccc1)C(=O)N[C@@H](COCc1ccccc1)C(=O)NCc1ccc(C(=N)N)cc1` [Inhibitor 41]: the inhibition constant (Ki) at plasma kallikrein (PK) worked out at 0.012 µM; on human factor XIIa, 1.4 µM; at thrombin, 0.012 µM; on human factor XIa, 0.2 µM.

For the molecule `COC(=O)c1ccc(CS(=O)(=O)N[C@H](COC(C)(C)C)C(=O)N[C@@H](C)C(=O)NCc2ccc(C(=N)N)cc2)cc1` [Inhibitor 49], the Ki was found to be 0.054 µM at plasma kallikrein (PK), 4.7 µM on human factor XIIa, 0.0043 µM on thrombin and 0.079 µM at human factor XIa.

As to `N=C(N)c1ccc(CNC(=O)CNC(=O)[C@@H](Cc2cccc(C(=N)N)c2)NS(=O)(=O)Cc2ccccc2)cc1` [Inhibitor 77], the Ki on plasma kallikrein (PK) was 0.082 µM; on human factor XIIa it was 0.19 µM; on thrombin, 0.085 µM; at human factor XIa, 0.25 µM.

Turning to `N=C(N)c1ccc(CNC(=O)[C@H](CCCCNC(=O)OCc2ccccc2)NC(=O)[C@@H](CC2CCCCC2)NS(=O)(=O)Cc2ccccc2)cc1` [Inhibitor 54], the Ki at plasma kallikrein (PK) was 0.02 µM; on human factor XIIa it was 4 µM; on thrombin it was 0.015 µM; at human factor XIa, 0.34 µM.

Consider `CC(C)(C)OC[C@@H](NS(=O)(=O)Cc1ccccc1)C(=O)NC(CC(=O)O)CC(=O)NCc1ccc(C(=N)N)cc1` (stereo partly shown) [Inhibitor 32], for which the Ki on plasma kallikrein (PK) is 8 µM; at human factor XIIa, > 1000 µM; at thrombin, > 1000 µM; at human factor XIa, 8.2 µM.

Turning to `N=C(N)c1ccc(CNC(=O)[C@H](CCCCNC(=O)COCC(=O)NCCOCCOCCOCCOCCOCCOCCOCCN)NC(=O)[C@@H](CO)NS(=O)(=O)Cc2ccccc2)cc1` [Inhibitor 88], the Ki came out at 0.22 µM at plasma kallikrein (PK), 21 µM at human factor XIIa, 1.2 µM on thrombin and 0.4 µM on human factor XIa.

With `N=C(N)NCC[C@@H](NS(=O)(=O)Cc1ccccc1)C(=O)NCC(=O)NCc1ccc(C(=N)N)cc1` [Inhibitor 80], the Ki at plasma kallikrein (PK) turned out to be 0.068 µM; on human factor XIIa, 0.34 µM; at thrombin, 2.1 µM; at human factor XIa, 0.49 µM.

Consider `CC(C)(C)OC[C@@H](NS(=O)(=O)Cc1ccccc1)C(=O)N[C@@H](Cc1ccccc1)C(=O)NCc1ccc(C(=N)N)cc1` [Inhibitor 44], for which the Ki was 0.0055 µM on plasma kallikrein (PK), 4.6 µM on human factor XIIa, 0.16 µM on thrombin and 0.26 µM at human factor XIa.

Regarding `N=C(N)c1ccc(CNC(=O)CNC(=O)[C@@H](CCc2ccccc2)NS(=O)(=O)Cc2ccc([N+](=O)[O-])cc2)cc1` [Inhibitor 74], the inhibition constant (Ki) on plasma kallikrein (PK) is 0.051 µM; at human factor XIIa, 0.39 µM; on thrombin it was 0.71 µM; at human factor XIa it was 0.093 µM.

As for `N=C(N)c1ccc(CNC(=O)[C@H](CCC(=O)O)NC(=O)[C@@H](CC2CCCCC2)NS(=O)(=O)Cc2ccccc2)cc1` [Inhibitor 57], the Ki on plasma kallikrein (PK) stood at 0.03 µM; on human factor XIIa it was 4 µM; at thrombin, 0.081 µM; on human factor XIa it was 0.02 µM.

On to `COC(=O)c1ccc(CS(=O)(=O)N[C@H](Cc2cccc(C(=N)N)c2)C(=O)NCC(=O)NCc2ccc(C(=N)N)cc2)cc1` [Inhibitor 84], for which the Ki on plasma kallikrein (PK) came out at 0.14 µM; on human factor XIIa, 0.38 µM; at thrombin it was 0.53 µM; on human factor XIa, 0.7 µM.

On to `CC(C)(C)OC[C@@H](NS(=O)(=O)Cc1ccccc1)C(=O)N[C@@H](CCC(=O)O)C(=O)NCc1ccc(C(=N)N)cc1` [Inhibitor 30], for which the Ki was 0.36 µM at plasma kallikrein (PK), 19 µM on human factor XIIa, 2.6 µM on thrombin and 0.079 µM on human factor XIa.

Consider `COC(=O)c1ccc(CS(=O)(=O)N[C@H](CO)C(=O)NCC(=O)NCc2ccc(C(=N)N)cc2)cc1` [Inhibitor 21], for which the Ki on plasma kallikrein (PK) amounted to 4.2 µM; on human factor XIIa it was 42 µM; at thrombin it was 9.4 µM; on human factor XIa, 8.1 µM.

Consider `CC(C)(C)OC[C@@H](NS(=O)(=O)Cc1ccccc1)C(=O)N1CCC[C@H]1C(=O)NCc1ccc(C(=N)N)cc1` [Inhibitor 28], for which the Ki at plasma kallikrein (PK) was 0.0065 µM; at human factor XIIa it was 0.49 µM; on thrombin, 0.002 µM; at human factor XIa, 0.036 µM.

For the molecule `CC(C)(C)OC[C@@H](NS(=O)(=O)Cc1ccccc1)C(=O)N[C@@H](CCCCN)C(=O)NCc1ccc(C(=N)N)cc1` [Inhibitor 35], the Ki at plasma kallikrein (PK) turned out to be 0.0036 µM; at human factor XIIa, 4.4 µM; at thrombin, 0.055 µM; on human factor XIa it was 0.51 µM.

With `CC(C)(C)OC[C@@H](NS(=O)(=O)Cc1ccccc1)C(=O)N[C@@H](CCCCNC(=O)OCc1ccccc1)C(=O)NCc1ccc(C(=N)N)cc1` [Inhibitor 36], the Ki at plasma kallikrein (PK) was found to be 0.0094 µM; at human factor XIIa it was 5.4 µM; on thrombin, 0.024 µM; on human factor XIa, 0.48 µM.

For the molecule `N=C(N)c1ccc(CNC(=O)CNC(=O)C(CO)NS(=O)(=O)Cc2ccccc2)cc1` (stereo not shown) [Inhibitor 1], the Ki on plasma kallikrein (PK) came to 1.7 µM; on human factor XIIa, 16 µM; on thrombin, 13 µM; on human factor XIa, 2.2 µM.

`N=C(N)NCCC[C@H](NC(=O)[C@@H](CO)NS(=O)(=O)Cc1ccccc1)C(=O)NCc1ccc(C(=N)N)cc1` [Inhibitor 12]: the Ki amounted to 0.079 µM on plasma kallikrein (PK), 16 µM at human factor XIIa, 4.7 µM on thrombin and 0.77 µM on human factor XIa.

For the molecule `N=C(N)c1ccc(CNC(=O)[C@H](CN)NC(=O)[C@@H](CO)NS(=O)(=O)Cc2ccccc2)cc1` [Inhibitor 8], the Ki was 0.05 µM at plasma kallikrein (PK), 15 µM at human factor XIIa, 0.65 µM at thrombin and 0.39 µM on human factor XIa.

In the case of `CC(C)(C)OC[C@@H](NS(=O)(=O)Cc1ccc(C#N)cc1)C(=O)N1CCC[C@H]1C(=O)NCc1ccc(C(=N)N)cc1` [Inhibitor 51], the Ki at plasma kallikrein (PK) amounted to 0.0094 µM; on human factor XIIa, 1.6 µM; at thrombin it was 6.4e-05 µM; on human factor XIa, 0.0091 µM.

As for `C[C@@H](OCc1ccccc1)[C@H](NC(=O)[C@@H](COC(C)(C)C)NS(=O)(=O)Cc1ccccc1)C(=O)NCc1ccc(C(=N)N)cc1` [Inhibitor 39], the Ki at plasma kallikrein (PK) turned out to be 0.044 µM; at human factor XIIa it was 17 µM; on thrombin, 0.019 µM; at human factor XIa it was 0.4 µM.

As for `N=C(N)c1ccc(CNC(=O)CNC(=O)[C@@H](CC2CCCCC2)NS(=O)(=O)Cc2ccccc2)cc1` [Inhibitor 82], the Ki on plasma kallikrein (PK) came out at 0.1 µM; at human factor XIIa it was 1.4 µM; at thrombin, 0.023 µM; on human factor XIa, 0.33 µM.

Turning to `N=C(N)c1ccc(CNC(=O)CNC(=O)[C@@H](CO)NS(=O)(=O)Cc2ccc(C(=O)O)cc2)cc1` [Inhibitor 20], the Ki was 0.7 µM on plasma kallikrein (PK), > 1000 µM on human factor XIIa, 170 µM on thrombin and 0.6 µM at human factor XIa.

Consider `N=C(N)c1ccc(CNC(=O)[C@H](CNC(=O)OCc2ccccc2)NC(=O)[C@@H](CO)NS(=O)(=O)Cc2ccccc2)cc1` [Inhibitor 9], for which the Ki at plasma kallikrein (PK) was 0.042 µM; at human factor XIIa, 13 µM; at thrombin it was 6.9 µM; at human factor XIa, 0.28 µM.

Turning to `N=C(N)c1ccc(CNC(=O)[C@H](CO)NC(=O)[C@@H](CCc2ccccc2)NS(=O)(=O)Cc2ccccc2)cc1` [Inhibitor 67], the Ki was determined as 0.019 µM on plasma kallikrein (PK), 0.63 µM at human factor XIIa, 0.55 µM at thrombin and 3 µM at human factor XIa.

By Ki is commonly meant a dissociation constant, usually derived from enzyme kinetics or from competition with a known ligand.
